For 50 compounds, IC50 results are on record in the Kinase Knowledgebase extract (Sharma et al. 2016).

The target of the assay is PIK3CA (human) (UniProt P42336). In words: Assessment of PIK3CA Kinase Activity.
PIK3CA (human), sequence (P42336 whole entry, looked up): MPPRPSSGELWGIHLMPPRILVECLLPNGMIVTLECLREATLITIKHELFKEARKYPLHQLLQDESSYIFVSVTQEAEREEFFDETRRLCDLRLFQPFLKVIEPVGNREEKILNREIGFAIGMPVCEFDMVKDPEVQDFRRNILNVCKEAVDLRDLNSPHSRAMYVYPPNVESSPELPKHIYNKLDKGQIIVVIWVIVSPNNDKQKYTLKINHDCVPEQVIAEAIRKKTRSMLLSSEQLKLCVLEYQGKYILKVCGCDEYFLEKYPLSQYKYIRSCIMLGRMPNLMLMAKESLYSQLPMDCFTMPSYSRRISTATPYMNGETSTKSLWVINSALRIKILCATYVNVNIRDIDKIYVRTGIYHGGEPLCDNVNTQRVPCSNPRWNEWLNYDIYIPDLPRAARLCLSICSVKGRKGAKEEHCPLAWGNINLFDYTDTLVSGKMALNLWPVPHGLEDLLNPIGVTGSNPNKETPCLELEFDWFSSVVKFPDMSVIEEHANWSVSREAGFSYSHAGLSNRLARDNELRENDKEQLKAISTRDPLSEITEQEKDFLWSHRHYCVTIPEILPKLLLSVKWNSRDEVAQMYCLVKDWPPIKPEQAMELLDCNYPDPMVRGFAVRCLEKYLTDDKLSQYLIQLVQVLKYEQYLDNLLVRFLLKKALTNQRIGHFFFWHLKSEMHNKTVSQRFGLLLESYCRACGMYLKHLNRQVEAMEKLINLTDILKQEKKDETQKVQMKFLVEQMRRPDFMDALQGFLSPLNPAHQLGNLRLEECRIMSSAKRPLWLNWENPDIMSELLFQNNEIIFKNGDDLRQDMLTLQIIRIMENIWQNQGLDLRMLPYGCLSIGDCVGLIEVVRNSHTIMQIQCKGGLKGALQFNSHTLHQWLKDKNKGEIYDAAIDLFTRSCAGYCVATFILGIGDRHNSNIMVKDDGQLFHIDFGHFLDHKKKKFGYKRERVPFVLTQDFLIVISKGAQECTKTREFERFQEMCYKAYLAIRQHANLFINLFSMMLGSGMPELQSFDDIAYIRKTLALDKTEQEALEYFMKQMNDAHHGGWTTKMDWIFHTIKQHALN
With `O=C(Nc1ccc(-c2nc(N3CCOCC3)c3sccc3n2)cc1)Nc1cccnc1`, the IC50 worked out at 0.011 µM.

`CN(C)CCN(C)C(=O)c1ccc(NC(=O)Nc2ccc(-c3nc(O)c(N)c(N4CCOCC4)n3)cc2)cc1` yielded an IC50 of 0.031 µM. This IC50 lies about 2.8-fold higher than the previous one. Under `O=C(Nc1ccncc1)Nc1ccc(-c2ncc(Cl)c(N3CCOCC3)n2)cc1` stands 0.042 µM.

As to `C[C@@H]1COCCN1c1cc(C2CCOCC2)nc(-c2ccc(NC(=O)Nc3ccc(N4CCN(C)CC4)cc3)cc2)n1`, the IC50 amounted to 0.419 µM.

`CNC(=O)Nc1ccc(-c2nc(N3CCOCC3)c3sccc3n2)cc1` registered an IC50 of 0.093 µM.

As for `CN(C)CCOc1ccc(NC(=O)Nc2ccc(-c3nccc(N4CCOCC4)n3)cc2)cc1`, the IC50 amounted to 0.022 µM. `O=C(Nc1ccncc1)Nc1ccc(-c2cc(N3CCOCC3)nc(N3CCOCC3)n2)cc1` had an IC50 of 0.016 µM. This IC50 and that of the compound before are within 1.5-fold of each other. `O=C(Nc1ccc(-c2ncc([N+](=O)[O-])c(N3CCOCC3)n2)cc1)Nc1cccnc1` displayed an IC50 of 0.155 µM. Under `CC(C)N1CCN(C(=O)c2ccc(NC(=O)Nc3ccc(-c4nc(N5CCOC[C@H]5C)cc(N5CCOC[C@H]5C)n4)cc3)cc2)CC1` stands 0.113 µM. Under `C[C@@H]1COCCN1c1cc(C2CCOCC2)nc(-c2ccc(NC(=O)Nc3cccnc3)cc2)n1` stands 0.684 µM. The figure for `CNC(=O)Nc1ccc(-c2cc(N3CCOCC3)c3cnn(C4CCN(Cc5ccccc5)CC4)c3n2)cc1` is 0.592 µM; for `CNC(=O)Nc1ccc(-c2ccnc(N3CCOCC3)n2)cc1` it is 0.394 µM.

Compound `C[C@@H]1COCCN1c1cc(N2CCOC[C@H]2C)nc(-c2ccc(NC(=O)Nc3ccc(C(=O)N4CCN(C)CC4)cc3)cc2)n1` yielded an IC50 of 0.0775 µM. This IC50 lies about 5.1-fold lower than the previous one. Under `C[C@@H]1COCCN1c1cc(N2CCOC[C@H]2C)nc(-c2ccc(NC(=O)Nc3ccc(N4CCN(C)CC4)cc3)cc2)n1` stands 0.565 µM; under `O=C(NCCO)Nc1ccc(-c2nc(N3CCOCC3)c3sccc3n2)cc1`, 0.141 µM; under `O=C(Nc1ccc(-c2ncc(-c3ccccc3)c(N3CCOCC3)n2)cc1)Nc1cccnc1`, 0.053 µM. The figure for `C[C@@H]1COCCN1c1cc(C2CCOCC2)nc(-c2ccc(NC(=O)Nc3ccc(N4CCN(C)CC4)nc3)cc2)n1` is 0.694 µM.

Compound `O=C(Nc1ccc(-c2ccnc(N3CCOCC3)n2)cc1)OCCO` displayed an IC50 of 2.86 µM.

On to `COC(=O)Nc1ccc(-c2nc(N3CCOCC3)c3sccc3n2)cc1`, for which the IC50 turned out to be 1.59 µM. As to `CN1CCN(c2ccc(NC(=O)Nc3ccc(-c4cc(N5CCOCC5)nc(-c5ccccc5)n4)cc3)cc2)CC1`, the IC50 was determined as 7.77 µM.

Turning to `O=C(Nc1ccc(-c2nccc(N3CCOCC3)n2)cc1)OCCO`, the IC50 is 2.55 µM.

The compound `CN1CCN(c2ccc(NC(=O)Nc3ccc(-c4nccc(N5CCOCC5)n4)cc3)cc2)CC1` registered an IC50 of 0.019 µM. Compound `CN(C)CCN(C)C(=O)c1ccc(NC(=O)Nc2ccc(-c3nc(O)c(NC=O)c(N4CCOCC4)n3)cc2)cc1` returned an IC50 of 0.076 µM. `CNC(=O)Nc1ccc(-c2nccc(N3CCOCC3)n2)cc1` displayed an IC50 of 0.384 µM. This IC50 is about 5.1-fold higher than that of the compound before. The figure for `O=C(Nc1ccncc1)Nc1ccc(-c2nccc(N3CCOCC3)n2)cc1` is 0.015 µM; for `O=C(Nc1ccc(-c2nc(N3CCOCC3)c3sccc3n2)cc1)NC1CC1` it is 0.636 µM; for `C[C@@H]1COCCN1c1cc(N2CCOC[C@H]2C)nc(-c2ccc(NC(=O)Nc3ccncc3)cc2)n1` it is 0.572 µM. The figure for `O=C(Nc1ccccc1)Nc1ccc(-c2nc(N3CCOCC3)c3sccc3n2)cc1` is 0.007 µM; for `CN1CCN(c2ccc(NC(=O)Nc3ccc(-c4nccc(N5CCOCC5)n4)cc3)cn2)CC1` it is 0.046 µM. The figure for `O=C(Nc1ccc(-c2cc(N3CCOCC3)nc(-c3ccccc3)n2)cc1)NC1CC1` is 3.07 µM; for `C[C@@H]1COCCN1c1cc(C2CCOCC2)nc(-c2ccc(NC(=O)Nc3ccc(C(=O)N4CCN(C)CC4)cc3)cc2)n1` it is 0.0805 µM; for `O=C(Nc1ccncc1)Nc1ccc(-c2nc(N3CCOCC3)cc(N3CCOCC3)n2)cc1` it is 0.021 µM. Compound `CN1CCN(c2ccc(NC(=O)Nc3ccc(-c4ccnc(N5CCOCC5)n4)cc3)cn2)CC1` returned an IC50 of 0.079 µM.

In the case of `C[C@@H]1COCCN1c1cc(C2CCOCC2)nc(-c2ccc(NC(=O)Nc3ccncc3)cc2)n1`, the IC50 is 0.383 µM. Regarding `C=CCc1cnc(-c2ccc(NC(=O)Nc3cccnc3)cc2)nc1N1CCOCC1`, the IC50 is 0.035 µM. Against the preceding compound, the IC50 is about 11-fold lower. Under `Cc1ccc2c(N3CCOCC3)nc(-c3ccc(NC(=O)Nc4ccncc4)cc3)nc2c1` stands 0.035 µM. Under `O=C(Nc1ccncc1)Nc1ccc(-c2nc(N3CCOCC3)c3sccc3n2)cc1` stands 0.009 µM; under `O=C(Nc1ccc(-c2nccc(N3CCOCC3)n2)cc1)Nc1ccc(N2CCOCC2)cc1`, 0.035 µM; under `O=C(Nc1ccncc1)Nc1ccc(-c2cc3nccn3c(N3CCOCC3)n2)cc1`, 0.654 µM.

Regarding `O=C(Nc1ccc(-c2nccc(N3CCOCC3)n2)cc1)Nc1ccc(N2CCOCC2)nc1`, the IC50 is 0.112 µM. Compared with the last compound, the IC50 is about 5.8-fold lower.

With `CNC(=O)Nc1ccc(-c2cc3nccn3c(N3CCOCC3)n2)cc1`, the IC50 turned out to be 2.97 µM. Under `O=CNc1c(O)nc(-c2ccc(NC(=O)Nc3ccc(C(=O)NCCN4CCCCC4)cc3)cc2)nc1N1CCOCC1` stands 0.202 µM; under `CCNC(=O)Nc1ccc(-c2nc(N3CCOCC3)c3sccc3n2)cc1`, 0.312 µM; under `O=C(Nc1ccc(-c2ccnc(N3CCOCC3)n2)cc1)Nc1cccnc1`, 0.042 µM. Under `CC(C)N1CCN(C(=O)c2ccc(NC(=O)Nc3ccc(-c4nc(C5CCOCC5)cc(N5CCOC[C@H]5C)n4)cc3)cc2)CC1` stands 0.146 µM.

In turn, `C[C@@H]1COCCN1c1cc(N2CCOC[C@H]2C)nc(-c2ccc(NC(=O)Nc3cccnc3)cc2)n1` gave an IC50 of 0.983 µM. The figure for `O=C(NCCF)Nc1ccc(-c2nc(N3CCOCC3)c3sccc3n2)cc1` is 0.364 µM; for `O=C(Nc1ccc(-c2nccc(N3CCOCC3)n2)cc1)NC1CC1` it is 2.75 µM. Under `O=C(Nc1ccc(-c2cc3nccn3c(N3CCOCC3)n2)cc1)NC1CC1` stands 5.08 µM; under `CCNC(=O)Nc1ccc(-c2nccc(N3CCOCC3)n2)cc1`, 0.415 µM.

Usually IC50 stands for the concentration at which inhibition is half-maximal. The low end stands for greater potency, the high end for weaker potency.
